Measured values reported in patent publication US20200085839A1, “COMBINATION OF IMMUNOTHERAPEUTICS AND BISFLUOROALKYL-1,4-BENZODIAZEPINONE COMPOUNDS FOR TREATING LYMPHOMAS” (Ayala Pharmaceuticals Inc., priority 2018, published 2020).

Test system: U266 cells (MM cell line)
Assay: Cell-bound BCMA by flow cytometry
Assay type: cell-based, human
Settings: 24 h, FIG. 1
Experimental: FIG. 1. Levels of cell-bound BCMA en multiple myelma (MM) cells Incubated with γ-secretase inhibitors (GSIs). U266 cells (MM cell line) were incubated with 0.3 nM, 0.5 nM, 1 nM or 3 nM of GSI (Compound 1, Compound 22, LY3039478 or PF3084014) for 24 hours, and BCMA levels were measured by flow cytometry.
For detecting levels of soluble and cell-bound BCMA, U266 cells (MM cell line) were seeded at 1×10^5 cells/well in a total volume of 250 μl into a 96-well plate. The cells were cultured in RPMI medium supplemented with 10% FCS. GSIs (Compound 1, Compound 22, LY3039478 (Lilly), and PF3084014 (Pfizer)) were added to U266 cell cultures at a concentration of 0.3 nM, 0.5 nM, 1 nM and 3 nM for soluble BCMA and at a concentration of […]. Following 24 hours of incubation at 37° C., the cells were collected, and BCMA levels were evaluated in both the cells (cell-bound BCMA) and the cell media (soluble BCMA). Cells were stained with an anti-BCMA antibody (PE anti-human CD269 BCMA, Biolegend). Soluble BCMA levels were analyzed by ELISA (Human BCMA/TNFRSF17 DuoSet kit: R&D Systems).

Row | SMILES | cell-bound BCMA levels
1 | C[C@H](NC(=O)CCC(F)(F)F)C(=O)N[C@@H]1C(=O)N(CCO)c2ncccc2-c2ccccc21 [LY3039478, reference compound] | increased cell-bound BCMA levels
2 | CCC[C@H](N[C@H]1CCc2cc(F)cc(F)c2C1)C(=O)Nc1cn(C(C)(C)CNCC(C)(C)C)cn1 [PF3084014, reference compound] | increased cell-bound BCMA levels
